# Structures can show the parent of a compound that is named as a salt.
row,SMILES,melting point
1,"COc1ccc2c(=O)nc(-c3cccc(CCC(=O)OC(C)(C)C)n3)sc2c1 [Example 173, tert-Butyl 3-[6-(7-methoxy-4-oxo-4H-1,3-benzothiazin-2-yl)-2-pyridyl]propanoate]",134.5 to 135.4 °C
2,"O=c1nc(-c2cccc([S+]([O-])Cc3ccccc3)n2)sc2ccccc12 (stereo not shown) [Example 160, 2-(6-Benzylsulfinyl-2-pyridyl)-4H-1,3-benzothiazine-4-one]",208.5 to 210 °C
3,"O=c1nc(-c2ccccn2)sc2ccc(OCCCO)cc12 [Example 118, 6-(3-Hydroxypropoxy)-2-(2-pyridyl)-4H-1,3-benzothiazine-4-one]",196.6 to 197.7 °C
4,"CCCCC[S+]([O-])c1cccc(-c2nc(=O)c3ccccc3s2)n1 (stereo not shown) [Example 155, 2-[6(n-Pentylsulfinyl)-2-pyridyl]-4H-1,3-benzothiazine-4-one]",146 to 147 °C
5,"CCOC(=O)C(C)Cc1cccc(-c2nc(=O)c3ccccc3s2)n1 (stereo not shown) [Example 315, Ethyl 2-methyl-3-[6-(4-oxo-4H-1,3-benzothiazin-2-yl)-2-pyridyl]propionate]",120.2 to 120.7 °C
6,"O=c1nc(-c2cc(C3CCCN3)ccn2)sc2ccccc12 (stereo not shown) (as salt: trifluoroacetic acid salt) [Example 353, 2-[4-(2-Pyrrolidinyl)-2-pyridyl]-4H-1,3-benzothiazine-4-one trifluoroacetic acid salt]",187.5 to 189 °C
7,"N#CCCc1cccc(-c2nc(=O)c3ccccc3s2)n1 [Example 306, 3-[6-(4-Oxo-4H-1,3-benzothiazin-2-yl)-2-pyridyl]propionitrile]",156.6 to 157 °C
8,"Cc1nc(-c2nc(=O)c3ccccc3s2)cs1 [Example 347, 2-(2-Methyl-1,3-thiazol-4-yl)-4H-1,3-benzothiazin-4-one]",219 to 220 °C
9,"Cc1cccc2c(=O)nc(-c3cccc(C(=O)O)n3)sc12 [Example 233, 6-(8-Methyl-4-oxo-4H-1,3-benzothiazin-2-yl)-2-pyridinecarboxylic acid]",260.5 to 260.8 °C
10,"N#Cc1cc(CCC(=O)O)cc(-c2nc(=O)c3ccccc3s2)n1 [Example 356, 3-[2-Cyano-6-(4-oxo-4H-1,3-benzothiazin-2-yl)-4-pyridyl]propanoate]",271 to 272.7 °C
11,"Cc1cc(CCC(=O)O)cc(-c2nc(=O)c3ccccc3s2)n1 [Example 321, 3-[2-Methyl-6-(4-oxo-4H-1,3-benzothiazin-2-yl)-4-pyridyl]propionic acid]",233.2 to 234.7 °C
12,"O=C(O)CNC(=O)CCc1cccc(-c2nc(=O)c3ccccc3s2)n1 [Example 312, ({3-[6-(4-Oxo-4H-1,3-benzothiazin-2-yl)-2-pyridyl]propanoyl}amino)acetic acid]",219.2 to 219.8 °C
13,"C[S+]([O-])c1ccnc(-c2nc(=O)c3ccccc3s2)c1 (stereo not shown) [Example 299, 2-[4-(Methylsulfinyl)-2-pyridyl]-4H-1,3-benzothiazine-4-one]",205 to 206 °C
14,"O=C(O)C[S+]([O-])c1cccc(-c2nc(=O)c3ccccc3s2)n1 (stereo not shown) [Example 279, [6-(4-Oxo-4H-1,3-benzothiazin-2-yl)-2-pyridyl]sulfinylacetic acid]",186.5 to 188 °C
15,"O=c1nc(-c2ccc3ccccc3n2)sc2ccccc12 [Example 3, 2-(2-Quinolinyl)-4H-1,3-benzothiazine-4-one]",262.7 to 263.4 °C
16,"O=C(O)CCCCCOc1ccc2sc(-c3ccccn3)nc(=O)c2c1 [Example 125, 6-[[4-Oxo-2-(2-pyridyl)-4H-1,3-benzothiazin-6-yl]oxy]hexanoic acid]",205.4 to 206.3 °C
17,"O=C(O)CCc1cccc(-c2nc(=O)c3ccc(F)cc3s2)n1 [Example 182, 3-[6-(7-Fluoro-4-oxo-4H-1,3-benzothiazin-2-yl)-2-pyridyl]propionic acid]",215 to 217 °C
18,"O=c1nc(-c2cccc(CCCO)n2)sc2ccccc12 [Example 302, 2-[6-(3-Hydroxypropyl)-2-pyridyl]-4H-1,3-benzothiazine-4-one]",145.5 to 146 °C
19,"C[S+]([O-])c1ccc(-c2nc(=O)c3ccccc3s2)cn1 (stereo not shown) [Example 261, 2-[6-(Methylsulfinyl)-3-pyridyl]-4H-1,3-benzothiazine-4-one]",195 to 196.5 °C
20,"NC(=O)CCc1cccc(-c2nc(=O)c3ccccc3s2)n1 [Example 330, 3-[6-(4-Oxo-4H-1,3-benzothiazin-2-yl)-2-pyridyl]propanamide]",236.3 to 236.5 °C
21,"CN(CC(=O)OC(C)(C)C)c1cncc(-c2nc(=O)c3ccccc3s2)n1 [Example 291, tert-Butyl {methyl[6-(4-oxo-4H-1,3-benzothiazin-2-yl)-2-pyrazinyl]amino}acetate]",189 to 190.5 °C
22,"Cc1ccc2c(=O)nc(-c3cccc(CCC(=O)OC(C)(C)C)n3)sc2c1 [Example 175, tert-Butyl 3-[6-(7-methyl-4-oxo-4H-1,3-benzothiazin-2-yl)-2-pyridyl]propanoate]",134.8 to 134.9 °C
23,Cc1cc(C)c2sc(-c3cccc(CCCOCCC(=O)O)n3)nc(=O)c2c1 [Example 88],156.5 to 157.1 °C

row,SMILES,melting point
1,"O=C(O)CCCCc1cccc(-c2nc(=O)c3ccccc3s2)n1 [Example 304, 5-[6-(4-Oxo-4H-1,3-benzothiazin-2-yl)-2-pyridyl]valeric acid]",161.9 to 162.3 °C
2,"O=c1nc(-c2cccc(S(=O)(=O)CCc3ccccc3)n2)sc2ccccc12 [Example 163, 2-[6-(2-Phenylethyl)sulfonyl-2-pyridyl]-4H-1,3-benzothiazine-4-one]",161.5 to 163.5 °C
3,O=C1c2ccccc2C(=O)N1CCOc1ccc(-c2nc(=O)c3ccccc3s2)cn1 [Example 95],212.4 to 212.6 °C
4,"O=C(O)CCc1cccc(-c2nc(=O)c3ccc(C(F)(F)F)cc3s2)n1 [Example 178, 3-[6-(4-Oxo-7-trifluoromethyl-4H-1,3-benzothiazin-2-yl)-2-pyridyl]propionic acid]",192.9 to 193.1 °C
5,"O=C(O)[C@@H]1CCCN1C(=O)CCc1cccc(-c2nc(=O)c3ccccc3s2)n1 [Example 313, 1-{3-[6-(4-Oxo-4H-1,3-benzothiazin-2-yl)-2-pyridyl]propanoyl}proline]",210.5 to 211 °C
6,"NCCc1ccnc(-c2nc(=O)c3ccccc3s2)c1 (as salt: trifluoroacetic acid salt) [Example 221, 2-[4-(2-Aminoethyl)-2-pyridyl]-4H-1,3-benzothiazine-4-one trifluoroacetic acid salt]",209 to 210.7 °C
7,"NCCc1ccnc(-c2nc(=O)c3ccc(Cl)cc3s2)c1 (as salt: trifluoroacetic acid salt) [Example 223, 2-[4-(2-Aminoethyl)-2-pyridyl]-7-chloro-4H-1,3-benzothiazine-4-one trifluoroacetic acid salt]",212 °C (dec.)
8,"O=c1nc(-c2cccc(SCc3ccccc3)n2)sc2ccccc12 [Example 159, 2-(6-Benzylthio-2-pyridyl)-4H-1,3-benzothiazine-4-one]",227 to 228 °C
9,CCC[S+]([O-])Cc1cccc(-c2nc(=O)c3ccccc3s2)n1 (stereo not shown) [Example 253],171 to 173 °C
10,"CCCS(=O)(=O)Cc1cccc(-c2nc(=O)c3ccccc3s2)n1 [Example 254, 2-[6-[(n-Propylsulfonyl)methyl]-2-pyridyl]-4H-1,3-benzothiazine-4-one]",177 to 179 °C
11,"O=C(O)CS(=O)(=O)c1cccc(-c2nc(=O)c3ccccc3s2)n1 [Example 281, [6-(4-Oxo-4H-1,3-benzothiazin-2-yl)-2-pyridyl]sulfonylacetic acid]",192 to 193.5 °C
12,"O=c1nc(-c2cccc(CN3CCCCC3)n2)sc2ccccc12 [Example 266, 2-[6-(1-Piperidinomethyl)-2-pyridyl]-4H-1,3-benzothiazine-4-one]",162 to 163 °C
13,"CCCCNC(=O)c1ccc2c(=O)nc(-c3ccccn3)sc2c1 [Example 237, N-Butyl-4-oxo-2-(2-pyridyl)-4H-1,3-benzothiazine-7-carboxamide]",193.5 to 194.2 °C
14,"CN(CC(=O)O)c1cncc(-c2nc(=O)c3ccccc3s2)n1 [Example 292, {Methyl[6-(4-oxo-1,3-benzothiazin-2-yl)-2-pyrazinyl]amino}acetic acid]",283 °C (dec.)
15,"CCOC(=O)C(C)Cc1ccnc(-c2nc(=O)c3ccccc3s2)c1 (stereo not shown) [Example 318, Ethyl 2-methyl-3-[2-(4-oxo-4H-1,3-benzothiazin-2-yl)-4-pyridyl]propionate]",120.3 to 120.7 °C
16,O=c1nc(-c2cccc(CCP(=O)(O)O)n2)sc2ccccc12 [Example 246],235.3 to 237.2 °C
17,"CC(C)(C)OC(=O)CCOCCCc1cccc(-c2nc(=O)c3ccccc3s2)n1 [Example 66, tert-Butyl 3-{3-[6-(4-oxo-4H-1,3-benzothiazin-2-yl)-2-pyridyl]propoxy}propanoate]",71 to 71.9 °C
18,"COc1cccc2c(=O)nc(-c3ccccn3)sc12 [Example 18, 8-Methoxy-2-(2-pyridyl)-4H-1,3-benzothiazine-4-one]",191.2 to 191.4 °C
19,"NCCc1cccc(-c2nc(=O)c3ccccc3s2)n1 (as salt: trifluoroacetic acid salt) [Example 220, 2-[6-(2-Aminoethyl)-2-pyridyl]-4H-1,3-benzothiazine-4-one trifluoroacetic acid salt]",206.2 to 207.1 °C
20,"NC(=O)CCc1ccnc(-c2nc(=O)c3ccccc3s2)c1 [Example 331, 3-[6-(4-Oxo-4H-1,3-benzothiazin-2-yl)-4-pyridyl]propanamide]",237 to 239.7 °C
21,"Cc1cc(CCC(=O)OC(C)(C)C)cc(-c2nc(=O)c3ccccc3s2)n1 [Example 319, tert-Butyl 3-[2-methyl-6-(4-oxo-4H-1,3-benzothiazin-2-yl)-4-pyridyl]propanoate]",129.4 to 130.5 °C
22,"CC(C)(C)OC(=O)CCc1cc(C#N)nc(-c2nc(=O)c3ccccc3s2)c1 [Example 355, tert-Butyl 3-[2-cyano-6-(4-oxo-4H-1,3-benzothiazin-2-yl)-4-pyridyl]propanoate]",189.9 to 190.7 °C
23,"CC(=O)OCCCc1cccc(-c2nc(=O)c3ccccc3s2)n1 [Example 301, 3-[6-(4-Oxo-4H-1,3-benzothiazin-2-yl)-2-pyridyl]propyl acetate]",141.3 to 141.6 °C

# Reference: patent publication US7767665B2, “1,3-benzothiazinone derivatives and use thereof” (Takeda Pharmaceutical Company Limited, priority 2001, dated 2010)
